Results: ChEMBL document CHEMBL1201861, “Genomics of Drug Sensitity in Cancer screening data, Wellcome Trust Sanger Institute”

Experiments:
Test in all cases: cells
Details in all cases: Homo sapiens
MEG-01 = format: functional, cell-based;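 also: growth inhibition of MEG-01 cells, read out by a cell viability assay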
Description: SANGER: Inhibition of human MEG-01 cell growth in a cell viability assay.

NCI-H1581 = format: functional, cell-based;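 also: cell growth inhibition read out by a viability assay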
Description: SANGER: Inhibition of human NCI-H1581 cell growth in a cell viability assay.

RKO = format: functional, cell-based;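 also: growth inhibition of human RKO cells, read out with a cell viability assay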
Description: SANGER: Inhibition of human RKO cell growth in a cell viability assay.

KP-N-YS = format: functional, cell-based;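 also: cell viability assay measuring inhibition of cell line growth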
Description: SANGER: Inhibition of human KP-N-YS cell growth in a cell viability assay.

HT-144 = format: functional, cell-based
Description: SANGER: Inhibition of human HT-144 cell growth in a cell viability assay.

NCI-H526 = format: functional, cell-based;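 also: growth inhibition of the human NCI-H526 cell line, measured by a cell viability assay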
Description: SANGER: Inhibition of human NCI-H526 cell growth in a cell viability assay.

COLO-320-HSR = format: functional, cell-based;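 also: growth inhibition of COLO-320-HSR cells, determined with a cell viability assay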
Description: SANGER: Inhibition of human COLO-320-HSR cell growth in a cell viability assay.

LU-134-A = format: functional, cell-based
Description: SANGER: Inhibition of human LU-134-A cell growth in a cell viability assay.

DMS-114 = format: functional, cell-based
SK-NEP-1 = format: functional, cell-based;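 also: growth inhibition of human SK-NEP-1 cells, read out by a cell viability assay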
Description: SANGER: Inhibition of human SK-NEP-1 cell growth in a cell viability assay.

ATN-1 = format: functional, cell-based;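 also: growth inhibition of human ATN-1 cells, read out with a cell viability assay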
Description: SANGER: Inhibition of human ATN-1 cell growth in a cell viability assay.

MZ1-PC = format: functional, cell-based;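 also: cell viability assay measuring growth inhibition of human MZ1-PC cells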
Description: SANGER: Inhibition of human MZ1-PC cell growth in a cell viability assay.

HL-60 = format: functional, cell-based;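 also: growth inhibition of human HL-60 cells, read out with a cell viability assay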
Description: SANGER: Inhibition of human HL-60 cell growth in a cell viability assay.

Ramos-2G6-4C10 = format: functional, cell-based;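 also: growth inhibition of the cell line, measured by a cell viability read-out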
Description: SANGER: Inhibition of human Ramos-2G6-4C10 cell growth in a cell viability assay.

NH-12 = format: functional, cell-based;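 also: growth inhibition of NH-12 cells, read out with a cell viability assay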
Description: SANGER: Inhibition of human NH-12 cell growth in a cell viability assay.

NB69 = format: functional, cell-based;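 also: growth inhibition of NB69 cells, determined by a cell viability assay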
Description: SANGER: Inhibition of human NB69 cell growth in a cell viability assay.

LAMA-84 = format: functional, cell-based;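 also: growth inhibition of LAMA-84 cells, read out with a cell viability assay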
Description: SANGER: Inhibition of human LAMA-84 cell growth in a cell viability assay.

JVM-3 = format: functional, cell-based;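 also: growth inhibition of human JVM-3 cells, read out with a cell viability assay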
Description: SANGER: Inhibition of human JVM-3 cell growth in a cell viability assay.

Becker = format: functional, cell-based;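 also: growth inhibition of Becker cells, read out with a cell viability assay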
Description: SANGER: Inhibition of human Becker cell growth in a cell viability assay.

DEL = format: functional, cell-based;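 also: growth inhibition of the human DEL cell line, read out with a cell viability assay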
Description: SANGER: Inhibition of human DEL cell growth in a cell viability assay.

GI-1 = format: functional, cell-based;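 also: growth inhibition of human GI-1 cells, measured with a cell viability readout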
Description: SANGER: Inhibition of human GI-1 cell growth in a cell viability assay.

EW-13 = format: functional, cell-based;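 also: growth inhibition of EW-13 cells, read out with a cell viability assay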
Description: SANGER: Inhibition of human EW-13 cell growth in a cell viability assay.

MHH-NB-11 = format: functional, cell-based;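 also: growth inhibition of human MHH-NB-11 cells, read out by a cell viability assay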
Description: SANGER: Inhibition of human MHH-NB-11 cell growth in a cell viability assay.

U-87 MG = format: functional, cell-based, U-87MG ATCC;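 also: growth inhibition of the cells measured with a viability assay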
Description: SANGER: Inhibition of human U-87-MG cell growth in a cell viability assay.

SK-PN-DW = format: functional, cell-based;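 also: growth inhibition measured with a viability assay on these cells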
Description: SANGER: Inhibition of human SK-PN-DW cell growth in a cell viability assay.

NB10 = format: functional, cell-based;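 also: growth inhibition of NB10 cells, read out by a cell viability assay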
Description: SANGER: Inhibition of human NB10 cell growth in a cell viability assay.

SNU-5 = format: functional, cell-based;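 also: cell viability readout used to measure growth inhibition in human NCI-SNU-5 cells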
Description: SANGER: Inhibition of human NCI-SNU-5 cell growth in a cell viability assay.

MC116 = format: functional, cell-based;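 also: growth inhibition of MC116 cells, read out with a cell viability assay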
Description: SANGER: Inhibition of human MC116 cell growth in a cell viability assay.

SK-MEL-1 = format: functional, cell-based;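 also: growth inhibition of human SK-MEL-1 cells, read out by a cell viability assay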
Description: SANGER: Inhibition of human SK-MEL-1 cell growth in a cell viability assay.

MZ2-MEL = format: functional, cell-based;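 also: growth inhibition of MZ2-MEL cells read out with a cell viability assay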
Description: SANGER: Inhibition of human MZ2-MEL cell growth in a cell viability assay.

MZ7-mel = format: functional, cell-based;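 also: growth inhibition of human MZ7-mel cells, measured by a cell viability assay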
Description: SANGER: Inhibition of human MZ7-mel cell growth in a cell viability assay.

MOLT-16 = format: functional, cell-based;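 also: growth inhibition of human MOLT-16 cells, read out with a cell viability assay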
Description: SANGER: Inhibition of human MOLT-16 cell growth in a cell viability assay.

SF-539 = format: functional, cell-based;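 also: Read-out is a cell viability assay, with IC50 reflecting inhibition of cell growth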
Description: SANGER: Inhibition of human SF539 cell growth in a cell viability assay.

MMAC-SF = format: functional, cell-based;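 also: growth inhibition of human MMAC-SF cells, read out with a cell viability assay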
Description: SANGER: Inhibition of human MMAC-SF cell growth in a cell viability assay.

EW-16 = format: functional, cell-based;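 also: growth inhibition of human EW-16 cells, read out as cell viability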
Description: SANGER: Inhibition of human EW-16 cell growth in a cell viability assay.

DOHH-2 = format: functional, cell-based;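 also: growth inhibition of human DOHH-2 cells, read out with a cell viability assay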
Description: SANGER: Inhibition of human DOHH-2 cell growth in a cell viability assay.

ES4 = format: functional, cell-based;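 also: growth inhibition of human ES4 cells, read out by a cell viability assay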
Description: SANGER: Inhibition of human ES4 cell growth in a cell viability assay.

BB30-HNC = format: functional, cell-based;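 also: growth inhibition of the cultured cell line, read out by a cell viability assay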
Description: SANGER: Inhibition of human BB30-HNC cell growth in a cell viability assay.

SJSA-1 = format: functional, cell-based;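 also: growth inhibition of human SJSA-1 cells, read out through a cell viability measurement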
Description: SANGER: Inhibition of human SJSA-1 cell growth in a cell viability assay.

EW-1 = format: functional, cell-based
Description: SANGER: Inhibition of human EW-1 cell growth in a cell viability assay.

A388 = format: functional, cell-based;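 also: growth inhibition of human A388 cells, read out with a cell viability assay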
Description: SANGER: Inhibition of human A388 cell growth in a cell viability assay.

NCI-H1304 = format: functional, cell-based;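 also: growth inhibition of the cancer cell line, measured in a cell viability assay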
Description: SANGER: Inhibition of human NCI-H1304 cell growth in a cell viability assay.

GI-ME-N = format: functional, cell-based;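 also: growth inhibition of human GI-ME-N cells, read out with a cell viability assay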
Description: SANGER: Inhibition of human GI-ME-N cell growth in a cell viability assay.

NCI-H209 = format: functional, cell-based;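 also: growth inhibition of human NCI-H209 cells, measured by a cell viability assay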
Description: SANGER: Inhibition of human NCI-H209 cell growth in a cell viability assay.

KMOE-2 = format: functional, cell-based;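 also: growth inhibition of human KMOE-2 cells, read out with a cell viability assay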
Description: SANGER: Inhibition of human KMOE-2 cell growth in a cell viability assay.

IA-LM = format: functional, cell-based;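 also: cell viability assay measuring growth inhibition of human IA-LM cells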
Description: SANGER: Inhibition of human IA-LM cell growth in a cell viability assay.

ONS-76 = format: functional, cell-based;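 also: growth inhibition of human ONS-76 cells, read out with a cell viability assay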
Description: SANGER: Inhibition of human ONS-76 cell growth in a cell viability assay.

L-363 = format: functional, cell-based
Description: SANGER: Inhibition of human L-363 cell growth in a cell viability assay.

TGBC24TKB = format: functional, cell-based;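 also: growth inhibition of human TGBC24TKB cells, read out with a cell viability assay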
Description: SANGER: Inhibition of human TGBC24TKB cell growth in a cell viability assay.

OVCAR-4 = format: functional, cell-based;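 also: growth inhibition of human OVCAR-4 cells, measured with a cell viability assay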
Description: SANGER: Inhibition of human OVCAR-4 cell growth in a cell viability assay.

TE-6 = format: functional, cell-based;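 also: growth inhibition of TE-6 cells, read out with a cell viability assay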
Description: SANGER: Inhibition of human TE-6 cell growth in a cell viability assay.

Mo = format: functional, cell-based
Description: SANGER: Inhibition of human Mo-T cell growth in a cell viability assay.

CAS-1 = format: functional, cell-based;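 also: growth inhibition of CAS-1 cells, measured with a cell viability assay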
Description: SANGER: Inhibition of human CAS-1 cell growth in a cell viability assay.

EW-18 = format: functional, cell-based;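 also: growth inhibition of EW-18 cells, read out by a cell viability assay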
Description: SANGER: Inhibition of human EW-18 cell growth in a cell viability assay.

KARPAS-45 = format: functional, cell-based;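 also: inhibition of cell line growth, read out through a viability assay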
Description: SANGER: Inhibition of human KARPAS-45 cell growth in a cell viability assay.

NCI-H1395 = format: functional, cell-based;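 also: cell viability assay read-out quantifying reduced proliferation of human NCI-H1395 cells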
Description: SANGER: Inhibition of human NCI-H1395 cell growth in a cell viability assay.

NCI-H747 = format: functional, cell-based
Description: SANGER: Inhibition of human NCI-H747 cell growth in a cell viability assay.

TE-10 = format: functional, cell-based
Description: SANGER: Inhibition of human TE-10 cell growth in a cell viability assay.

HCC1187 = format: functional, cell-based
Description: SANGER: Inhibition of human HCC1187 cell growth in a cell viability assay.

UACC-257 = format: functional, cell-based
Description: SANGER: Inhibition of human UACC-257 cell growth in a cell viability assay.

HDLM-2 = format: functional, cell-based
Description: SANGER: Inhibition of human HDLM-2 cell growth in a cell viability assay.

A101D = format: functional, cell-based
Description: SANGER: Inhibition of human A101D cell growth in a cell viability assay.

EKVX = format: functional, cell-based
Description: SANGER: Inhibition of human EKVX cell growth in a cell viability assay.

L-428 = format: functional, cell-based
Description: SANGER: Inhibition of human L-428 cell growth in a cell viability assay.

CC[C@@]1(O)C(=O)OCc2c1cc1n(c2=O)Cc2cc3ccccc3nc2-1 [CAMPTOTHECIN]
IC50 (MEG-01): 0.0395 µM
IC50 (NCI-H1581): 0.0335 µM
IC50 (RKO): 0.00423 µM
IC50 (KP-N-YS): > 0.1 µM
IC50 (HT-144): 0.0179 µM
IC50 (NCI-H526): 0.00103 µM
IC50 (COLO-320-HSR): 0.0621 µM
IC50 (LU-134-A): 0.000586 µM
IC50 (DMS-114): 0.0811 µM
IC50 (SK-NEP-1): 0.00123 µM
IC50 (ATN-1): 0.00204 µM
IC50 (MZ1-PC): 0.0203 µM
IC50 (HL-60): 0.00373 µM
IC50 (Ramos-2G6-4C10): 0.0105 µM
IC50 (NH-12): 0.00379 µM
IC50 (NB69): 0.000569 µM
IC50 (LAMA-84): 0.00702 µM
IC50 (JVM-3): 0.0025 µM
IC50 (Becker): 0.0233 µM
IC50 (DEL): 0.000816 µM
IC50 (GI-1): 0.00337 µM
IC50 (EW-13): 0.00327 µM
IC50 (MHH-NB-11): 0.000842 µM
IC50 (U-87 MG): 0.00663 µM
IC50 (SK-PN-DW): 0.00116 µM
IC50 (NB10): 0.000614 µM
IC50 (SNU-5): 0.0427 µM
IC50 (MC116): 0.0159 µM
IC50 (SK-MEL-1): 0.0513 µM
IC50 (MZ2-MEL): 0.0141 µM
IC50 (MZ7-mel): 0.00861 µM
IC50 (MOLT-16): 0.000732 µM
IC50 (SF-539): 0.00901 µM
IC50 (MMAC-SF): 0.0384 µM
IC50 (EW-16): 0.000121 µM
IC50 (DOHH-2): 0.000602 µM
IC50 (ES4): 0.00147 µM
IC50 (BB30-HNC): 0.0215 µM
IC50 (SJSA-1): 0.018 µM
IC50 (EW-1): 0.00178 µM
IC50 (A388): 0.0101 µM
IC50 (NCI-H1304): 0.0593 µM
IC50 (GI-ME-N): 0.0339 µM
IC50 (NCI-H209): 4.84e-05 µM
IC50 (KMOE-2): 0.0113 µM
IC50 (IA-LM): 0.012 µM
IC50 (ONS-76): 0.00241 µM
IC50 (L-363): 0.00187 µM
IC50 (TGBC24TKB): 0.0537 µM

NC(=O)c1ncn([C@@H]2O[C@H](COP(=O)(O)O)[C@@H](O)[C@H]2O)c1N
IC50 (MEG-01): 447 µM
IC50 (NCI-H1581): > 2000 µM
IC50 (RKO): 830 µM
IC50 (OVCAR-4): 751 µM
IC50 (TE-6): > 2000 µM
IC50 (Mo): > 2000 µM
IC50 (KP-N-YS): > 2000 µM
IC50 (HT-144): > 2000 µM
IC50 (NCI-H526): 115 µM
IC50 (COLO-320-HSR): 772 µM
IC50 (LU-134-A): 959 µM
IC50 (DMS-114): 1580 µM
IC50 (CAS-1): > 2000 µM
IC50 (EW-18): > 2000 µM
IC50 (SK-NEP-1): 611 µM
IC50 (ATN-1): 412 µM
IC50 (MZ1-PC): > 2000 µM
IC50 (HL-60): 376 µM
IC50 (Ramos-2G6-4C10): 238 µM
IC50 (NH-12): > 2000 µM
IC50 (KARPAS-45): 1410 µM
IC50 (NB69): 976 µM
IC50 (NCI-H1395): > 2000 µM
IC50 (LAMA-84): 435 µM
IC50 (JVM-3): > 2000 µM
IC50 (Becker): > 2000 µM
IC50 (NCI-H747): 1650 µM
IC50 (DEL): 232 µM
IC50 (TE-10): 1510 µM
IC50 (EW-13): > 2000 µM
IC50 (MHH-NB-11): 1110 µM
IC50 (HCC1187): 1140 µM
IC50 (UACC-257): > 2000 µM
IC50 (U-87 MG): > 2000 µM
IC50 (SK-PN-DW): 741 µM
IC50 (NB10): > 2000 µM
IC50 (HDLM-2): 1780 µM
IC50 (SNU-5): > 2000 µM
IC50 (A101D): > 2000 µM
IC50 (MC116): 1290 µM
IC50 (EKVX): > 2000 µM
IC50 (SK-MEL-1): > 2000 µM
IC50 (L-428): > 2000 µM
IC50 (MZ2-MEL): > 2000 µM
IC50 (MZ7-mel): 1770 µM
IC50 (MOLT-16): > 2000 µM
IC50 (SF-539): > 2000 µM
IC50 (MMAC-SF): > 2000 µM
IC50 (EW-16): > 2000 µM
IC50 (DOHH-2): 1310 µM
IC50 (ES4): 1770 µM
IC50 (BB30-HNC): 214 µM
IC50 (SJSA-1): 949 µM
IC50 (EW-1): 1870 µM
IC50 (A388): > 2000 µM
IC50 (NCI-H1304): > 2000 µM
IC50 (GI-ME-N): > 2000 µM
IC50 (NCI-H209): > 2000 µM
IC50 (KMOE-2): 415 µM
IC50 (IA-LM): 859 µM
IC50 (ONS-76): > 2000 µM
IC50 (L-363): 179 µM
IC50 (TGBC24TKB): 736 µM
